# Laboratory results taken from ChEMBL document CHEMBL2021816, “Synthesis and acrosin inhibitory activity of methyl 5-substituted-1H-benzo[d]imidazol-2-yl carbamate derivatives” (Bioorg Med Chem Lett, 2012).
# Biological target: Acrosin (Homo sapiens, UniProt P10323)
# Experiment: Inhibition of acrosin in human spermatozoa assessed as effect on amidase activity after 3 hrs incubation by spectrophotometry
# Sequence of Acrosin (P10323 20-42 limits assumed): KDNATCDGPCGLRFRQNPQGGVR
# Sequence of Acrosin (P10323 43-343 limits assumed): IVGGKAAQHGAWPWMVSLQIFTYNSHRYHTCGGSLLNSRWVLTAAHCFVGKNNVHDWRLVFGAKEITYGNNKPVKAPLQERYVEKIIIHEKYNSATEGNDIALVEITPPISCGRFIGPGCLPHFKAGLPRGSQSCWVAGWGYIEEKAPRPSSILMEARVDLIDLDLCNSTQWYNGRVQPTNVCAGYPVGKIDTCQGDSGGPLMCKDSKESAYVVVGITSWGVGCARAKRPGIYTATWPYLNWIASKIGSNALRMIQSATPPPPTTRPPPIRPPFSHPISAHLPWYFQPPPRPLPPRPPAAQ
row,Compound,IC50
1,COC(=O)Nc1nc2ccc(S(=O)(=O)NCc3ccc(Cl)cc3Cl)cc2[nH]1,1.27 mM
2,O=Cc1cc(-c2ccc(Cl)cc2Cl)on1,1.7 mM
3,CCCCNS(=O)(=O)c1ccc2nc(NC(=O)OC)[nH]c2c1,1.77 mM
4,COC(=O)Nc1nc2ccc(S(=O)(=O)NCc3ccc(OC)c(OC)c3)cc2[nH]1,11.5 mM
5,COC(=O)Nc1nc2ccc(S(=O)(=O)Nc3cc(C)ccc3C)cc2[nH]1,8.86 mM
6,COC(=O)Nc1nc2ccc(S(=O)(=O)N(CCC(C)C)CCC(C)C)cc2[nH]1,0.063 mM
7,COC(=O)Nc1nc2ccc(S(=O)(=O)NCc3ccccc3OC)cc2[nH]1,8.42 mM
8,COC(=O)Nc1nc2ccc(S(=O)(=O)NCc3ccccc3Cl)cc2[nH]1,5.75 mM
9,COC(=O)Nc1nc2ccc(S(=O)(=O)NC(C)C)cc2[nH]1,0.47 mM
10,COC(=O)Nc1nc2ccc(S(=O)(=O)NCc3ccc(Cl)c(Cl)c3)cc2[nH]1,4.02 mM
11,COC(=O)Nc1nc2ccc(S(=O)(=O)N(C)Cc3ccccc3)cc2[nH]1,1.25 mM
12,COC(=O)Nc1nc2ccc(S(=O)(=O)NCc3cccc(OC)c3)cc2[nH]1,7.5 mM
13,CCCCCCNS(=O)(=O)c1ccc2nc(NC(=O)OC)[nH]c2c1,1.8 mM

# The remaining lines, values ahead:
row,IC50,Compound
1,1.55 mM,COC(=O)Nc1nc2ccc(S(=O)(=O)NCc3ccc(F)cc3F)cc2[nH]1
2,10.7 mM,COC(=O)Nc1nc2ccc(S(=O)(=O)NCc3ccc(C(F)(F)F)cc3)cc2[nH]1
3,3.29 mM,COC(=O)Nc1nc2ccc(S(=O)(=O)NCc3ccc(OC)cc3)cc2[nH]1
4,1.03 mM,COC(=O)Nc1nc2ccc(S(=O)(=O)NCc3ccccc3)cc2[nH]1
5,1.59 mM,COC(=O)Nc1nc2ccc(S(=O)(=O)NCc3ccc(F)c(F)c3)cc2[nH]1
6,7.52 mM,COC(=O)Nc1nc2ccc(S(=O)(=O)NCc3ccc(Cl)cc3)cc2[nH]1
7,3.18 mM,COC(=O)Nc1nc2ccc(S(=O)(=O)NCc3ccc(C)cc3)cc2[nH]1
8,1.64 mM,COC(=O)Nc1nc2ccc(S(=O)(=O)NCc3ccc(Br)cc3)cc2[nH]1
9,1.81 mM,COC(=O)Nc1nc2ccc(S(=O)(=O)NCc3cccc(F)c3)cc2[nH]1
10,0.31 mM,COC(=O)Nc1nc2ccc(S(=O)(=O)NCc3ccccc3F)cc2[nH]1
11,5.06 mM,COC(=O)Nc1nc2ccc(S(=O)(=O)NCc3cccc(C)c3)cc2[nH]1
12,2.4 mM,COC(=O)Nc1nc2ccc(S(=O)(=O)NCc3ccc(F)cc3)cc2[nH]1
